Activity calls are given as the source filed them. The rule behind the calls is not given here.
Experiments:
Rattus norvegicus [1] = assay: Cognitive enhancing effect in Sprague-Dawley rat assessed as increase in total exploration time for novel objects in retention trial at 0.1 to 0.3 mg/kg, po administered 1 hr prior to acquisition trial measured 24 hrs post acquisition trial for 5 mins by novel object recognition test; type: functional, organism-based
D(2) dopamine receptor [2] = target: T1, D(2) dopamine receptor (Homo sapiens, UniProt P14416); assay: Antagonist activity at dopamine D2 receptor long isoform (unknown origin) expressed in HEK293 cells assessed as inhibition of dopamine-induced calcium flux at 10 uM after 15 mins by calcium 4-dye based FLIPR assay relative to control; type: functional, cell-based
Rattus norvegicus [3] = assay: AUC (0 to infinity) in Sprague-Dawley rat at 1 mg/kg, iv by LC-MS/MS analysis; type: ADME, organism-based; parameters: dose 1 mg/kg, route intravenous, time infinity; conditions: in vivo
[4] = target: T2, 5-hydroxytryptamine receptor 2A (Homo sapiens, UniProt P28223); assay: Agonist activity at serotonin 5-HT2A receptor (unknown origin) expressed in HEK293 cells assessed as induction of calcium flux at 10 uM after 60 mins by calcium 4-dye based FLIPR assay relative to control; type: functional, cell-based
[5] = AUC (0 to infinity) in Sprague-Dawley rat at 10 mg/kg, po by LC-MS/MS analysis; type: ADME, organism-based; parameters: dose 10 mg/kg, route oral, time infinity; conditions: in vivo
D(2) dopamine receptor [6] = target: T1, D(2) dopamine receptor
Rattus norvegicus [7] = assay: Cognitive enhancing effect in Sprague-Dawley rat assessed as increase in novelty discrimination index in retention trial at 0.3 mg/kg, po administered 1 hr prior to acquisition trial measured 24 hrs post acquisition trial for 5 mins by novel object recognition test; type: functional, organism-based
[8] = target: 5-hydroxytryptamine receptor 6 (Homo sapiens, UniProt P50406); assay: Agonist activity at serotonin 5-HT6 receptor (unknown origin) expressed in HEK293 cells assessed as induction of calcium flux at 10 uM after 60 mins by calcium 4-dye based FLIPR assay relative to control; type: functional, cell-based
[9] = target: T2, 5-hydroxytryptamine receptor 2A
D(1A) dopamine receptor = D(1A) dopamine receptor (Rattus norvegicus, UniProt P18901); assay: Displacement of [3H]-SCH23390 from dopamine D1 receptor in rat strriatum homogenates after 20 mins by liquid scintillation counting
[10] = Half life in Sprague-Dawley rat at 10 mg/kg, po by LC-MS/MS analysis; type: ADME, organism-based; conditions: in vivo
[11] = target: 5-hydroxytryptamine receptor 1A (Homo sapiens) (UniProt P08908); assay: Agonist activity at serotonin 5-HT1A receptor (unknown origin) expressed in HEK293 cells assessed as induction of calcium flux at 10 uM after 60 mins by calcium 4-dye based FLIPR assay relative to control; type: functional, cell-based
[12] = target: T3, Adrenergic receptor alpha-1 (Rattus norvegicus, UniProt P15823+P23944+P43140)
T3 sequence (P15823 whole entry): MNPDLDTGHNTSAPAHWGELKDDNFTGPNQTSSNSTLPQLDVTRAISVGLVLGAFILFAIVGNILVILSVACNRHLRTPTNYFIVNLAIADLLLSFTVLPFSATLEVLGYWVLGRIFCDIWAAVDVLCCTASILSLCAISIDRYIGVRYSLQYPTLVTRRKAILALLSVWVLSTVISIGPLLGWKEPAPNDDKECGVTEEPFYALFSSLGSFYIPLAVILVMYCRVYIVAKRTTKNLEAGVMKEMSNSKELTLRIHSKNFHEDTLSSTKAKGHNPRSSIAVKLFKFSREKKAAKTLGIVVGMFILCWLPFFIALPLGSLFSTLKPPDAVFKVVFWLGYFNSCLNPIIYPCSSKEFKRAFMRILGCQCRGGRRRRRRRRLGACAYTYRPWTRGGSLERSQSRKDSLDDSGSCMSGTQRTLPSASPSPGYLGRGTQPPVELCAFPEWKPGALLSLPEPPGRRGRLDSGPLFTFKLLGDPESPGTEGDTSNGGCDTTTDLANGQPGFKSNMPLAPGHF
T3 sequence (P23944 whole entry): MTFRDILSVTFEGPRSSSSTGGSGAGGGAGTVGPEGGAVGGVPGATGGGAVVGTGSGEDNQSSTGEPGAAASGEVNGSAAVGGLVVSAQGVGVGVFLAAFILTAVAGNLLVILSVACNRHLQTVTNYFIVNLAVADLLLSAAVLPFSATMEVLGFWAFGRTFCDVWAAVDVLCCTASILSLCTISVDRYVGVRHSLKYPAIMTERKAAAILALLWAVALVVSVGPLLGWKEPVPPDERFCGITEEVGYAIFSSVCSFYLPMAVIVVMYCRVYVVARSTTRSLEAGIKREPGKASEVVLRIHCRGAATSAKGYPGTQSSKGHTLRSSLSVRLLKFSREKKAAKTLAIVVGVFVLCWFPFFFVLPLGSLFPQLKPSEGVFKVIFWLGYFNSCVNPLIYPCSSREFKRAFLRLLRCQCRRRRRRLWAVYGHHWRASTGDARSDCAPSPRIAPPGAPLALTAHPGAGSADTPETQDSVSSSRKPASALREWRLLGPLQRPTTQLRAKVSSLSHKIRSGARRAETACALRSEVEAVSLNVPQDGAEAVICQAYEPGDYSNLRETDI
T3 sequence (P43140 whole entry): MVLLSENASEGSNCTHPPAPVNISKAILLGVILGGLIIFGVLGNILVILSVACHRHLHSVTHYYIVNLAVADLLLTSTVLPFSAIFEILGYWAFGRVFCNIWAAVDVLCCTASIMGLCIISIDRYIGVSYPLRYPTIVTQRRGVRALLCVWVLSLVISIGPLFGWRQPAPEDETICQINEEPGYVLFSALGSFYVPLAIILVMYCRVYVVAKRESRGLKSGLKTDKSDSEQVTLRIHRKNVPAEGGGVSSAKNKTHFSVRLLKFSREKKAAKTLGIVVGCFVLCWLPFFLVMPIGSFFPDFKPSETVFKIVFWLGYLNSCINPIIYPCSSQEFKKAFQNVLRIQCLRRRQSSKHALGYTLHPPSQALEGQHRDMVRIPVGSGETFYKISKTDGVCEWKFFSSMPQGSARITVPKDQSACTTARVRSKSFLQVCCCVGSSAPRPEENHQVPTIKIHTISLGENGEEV
Description: Displacement of [3H]-prazosin from alpha-1 adrenergic receptor in rat cerebral cortex homogenates incubated for 60 mins by liquid scintillation counting

D(3) dopamine receptor = D(3) dopamine receptor (Rattus norvegicus, UniProt P19020)
[13] = Therapeutic index, ratio of ED50 for catalepsy in Kunming mouse to ED50 for apomorphine-induced climbing in Kunming mouse; type: toxicity, organism-based; conditions: in vivo, read-out: Ratio ED50
D(2) dopamine receptor [14] = target: D(2) dopamine receptor (Rattus norvegicus, UniProt P61169)
[15] = AUC (0 to t) in Sprague-Dawley rat at 10 mg/kg, po by LC-MS/MS analysis; type: ADME, organism-based; conditions: in vivo
[16] = target: Adrenergic receptor alpha-2 (Rattus norvegicus, UniProt P22086+P19328+P22909); assay: Displacement of [3H]-rauwolscine from adrenergic alpha2 receptor in rat cerebral cotex homogenates after 60 mins by liquid scintillation counting
Mus musculus = assay: Induction of weight gain in Kunming mouse at 0.6 to 5.4 mg/kg, po administered for 28 days measured every day during compound dosing; type: organism-based; conditions: in vivo, 672 h

T1 sequence (P14416 whole entry, canonical isoform): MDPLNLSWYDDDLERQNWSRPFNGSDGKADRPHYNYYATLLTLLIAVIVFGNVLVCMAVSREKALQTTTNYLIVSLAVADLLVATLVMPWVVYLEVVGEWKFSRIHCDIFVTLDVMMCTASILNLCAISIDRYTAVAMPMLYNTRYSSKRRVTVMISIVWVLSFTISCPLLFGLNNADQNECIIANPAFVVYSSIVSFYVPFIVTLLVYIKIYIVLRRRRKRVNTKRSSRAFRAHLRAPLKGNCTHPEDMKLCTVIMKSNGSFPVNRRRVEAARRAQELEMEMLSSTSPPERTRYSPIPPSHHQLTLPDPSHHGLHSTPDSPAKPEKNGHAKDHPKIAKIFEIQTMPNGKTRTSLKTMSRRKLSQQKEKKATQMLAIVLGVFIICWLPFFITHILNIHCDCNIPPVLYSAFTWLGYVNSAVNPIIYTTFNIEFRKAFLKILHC
T2 sequence (P28223 whole entry): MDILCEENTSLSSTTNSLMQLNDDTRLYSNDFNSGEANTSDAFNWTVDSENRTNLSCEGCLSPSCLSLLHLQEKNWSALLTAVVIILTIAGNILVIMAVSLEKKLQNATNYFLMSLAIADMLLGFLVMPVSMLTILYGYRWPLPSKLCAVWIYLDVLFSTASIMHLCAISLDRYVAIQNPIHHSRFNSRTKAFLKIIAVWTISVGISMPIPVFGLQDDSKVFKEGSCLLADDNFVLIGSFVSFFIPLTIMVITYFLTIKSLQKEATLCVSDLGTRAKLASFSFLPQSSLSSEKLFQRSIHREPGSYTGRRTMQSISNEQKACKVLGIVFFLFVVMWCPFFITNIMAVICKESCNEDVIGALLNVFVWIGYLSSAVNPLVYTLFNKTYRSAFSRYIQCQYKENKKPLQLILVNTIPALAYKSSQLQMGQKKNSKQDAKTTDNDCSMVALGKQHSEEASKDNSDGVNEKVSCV
Sequence of D(1A) dopamine receptor (P18901 whole entry): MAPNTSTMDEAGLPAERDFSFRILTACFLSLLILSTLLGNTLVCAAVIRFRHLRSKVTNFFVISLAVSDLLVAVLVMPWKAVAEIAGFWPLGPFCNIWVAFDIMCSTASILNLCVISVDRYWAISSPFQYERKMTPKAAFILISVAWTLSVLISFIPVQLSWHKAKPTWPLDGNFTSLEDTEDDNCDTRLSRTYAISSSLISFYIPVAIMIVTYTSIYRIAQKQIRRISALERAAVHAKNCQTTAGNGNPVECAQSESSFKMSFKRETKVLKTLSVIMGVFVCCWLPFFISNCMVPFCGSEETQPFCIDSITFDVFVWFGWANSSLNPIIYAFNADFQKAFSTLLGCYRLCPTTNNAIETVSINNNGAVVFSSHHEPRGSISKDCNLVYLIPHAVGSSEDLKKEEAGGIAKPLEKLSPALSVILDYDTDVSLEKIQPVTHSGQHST
Sequence of D(3) dopamine receptor (P19020 whole entry): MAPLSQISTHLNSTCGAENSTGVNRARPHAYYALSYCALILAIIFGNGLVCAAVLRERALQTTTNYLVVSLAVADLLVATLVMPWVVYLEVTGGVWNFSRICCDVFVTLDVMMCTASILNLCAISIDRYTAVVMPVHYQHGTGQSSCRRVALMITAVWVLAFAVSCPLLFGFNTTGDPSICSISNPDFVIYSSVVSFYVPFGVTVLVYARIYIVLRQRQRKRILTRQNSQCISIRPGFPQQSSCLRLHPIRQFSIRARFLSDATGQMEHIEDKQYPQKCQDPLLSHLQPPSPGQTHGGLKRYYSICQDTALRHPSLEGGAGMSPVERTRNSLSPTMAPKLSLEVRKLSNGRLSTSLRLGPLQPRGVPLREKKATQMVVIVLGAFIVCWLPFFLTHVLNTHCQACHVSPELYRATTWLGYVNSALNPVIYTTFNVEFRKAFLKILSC
Sequence of 5-hydroxytryptamine receptor 6 (P50406 whole entry): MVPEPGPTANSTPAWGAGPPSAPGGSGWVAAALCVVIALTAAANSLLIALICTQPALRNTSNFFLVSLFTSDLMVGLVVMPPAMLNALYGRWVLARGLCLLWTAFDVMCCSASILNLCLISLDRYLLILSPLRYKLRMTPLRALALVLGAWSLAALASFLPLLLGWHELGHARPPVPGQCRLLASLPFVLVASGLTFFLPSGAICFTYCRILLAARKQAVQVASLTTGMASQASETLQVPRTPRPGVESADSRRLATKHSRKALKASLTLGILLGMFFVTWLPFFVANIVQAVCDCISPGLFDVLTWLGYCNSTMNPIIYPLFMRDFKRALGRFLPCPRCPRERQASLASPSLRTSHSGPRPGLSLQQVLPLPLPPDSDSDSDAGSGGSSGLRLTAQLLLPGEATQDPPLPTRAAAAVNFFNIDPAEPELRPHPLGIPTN
Sequence of 5-hydroxytryptamine receptor 1A (Homo sapiens) (P08908 whole entry): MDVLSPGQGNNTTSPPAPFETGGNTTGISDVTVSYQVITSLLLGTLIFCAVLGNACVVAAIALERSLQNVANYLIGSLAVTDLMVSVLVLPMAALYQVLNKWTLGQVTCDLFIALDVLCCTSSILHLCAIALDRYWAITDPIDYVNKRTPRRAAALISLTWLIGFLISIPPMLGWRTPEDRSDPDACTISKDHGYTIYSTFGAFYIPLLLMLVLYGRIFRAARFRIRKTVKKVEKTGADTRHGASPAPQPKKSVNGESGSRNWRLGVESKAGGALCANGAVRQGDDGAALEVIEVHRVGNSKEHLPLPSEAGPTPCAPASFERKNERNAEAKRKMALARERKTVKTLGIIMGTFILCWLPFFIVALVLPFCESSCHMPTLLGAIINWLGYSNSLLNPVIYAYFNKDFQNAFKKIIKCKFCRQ
Sequence of D(2) dopamine receptor (Rattus norvegicus, UniProt P61169) (P61169 whole entry): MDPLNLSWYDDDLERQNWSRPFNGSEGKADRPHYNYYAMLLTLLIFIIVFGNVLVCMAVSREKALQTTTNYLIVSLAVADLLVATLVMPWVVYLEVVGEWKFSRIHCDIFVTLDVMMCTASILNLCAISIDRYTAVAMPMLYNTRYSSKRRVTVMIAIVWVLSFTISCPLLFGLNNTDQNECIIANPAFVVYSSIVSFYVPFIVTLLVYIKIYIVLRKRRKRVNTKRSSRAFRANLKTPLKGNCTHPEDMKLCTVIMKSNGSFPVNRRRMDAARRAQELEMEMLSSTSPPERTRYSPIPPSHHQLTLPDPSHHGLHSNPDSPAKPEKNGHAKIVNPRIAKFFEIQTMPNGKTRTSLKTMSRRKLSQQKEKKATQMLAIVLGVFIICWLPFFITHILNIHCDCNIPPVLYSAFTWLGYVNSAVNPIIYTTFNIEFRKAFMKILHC

O=C(CCCCN1CCC(c2noc3cc(F)ccc23)CC1)c1cc2c3c(c1)CCN3C(=O)CC2
Activity (Rattus norvegicus [1]): Active
inhibition (D(2) dopamine receptor [2]): 93.3%
AUC (Rattus norvegicus [3]): 3151.2 ng·h/mL
Activity [4]: 0.6%
AUC(0-inf) [5]: 18500 ng·h/mL
IC50 (D(2) dopamine receptor [6]): 9.02 nM
Activity (Rattus norvegicus [7]): Active
Activity [8]: 6%
IC50 [9]: 257 nM
Ki (D(1A) dopamine receptor): 76.9 nM
half-life [10]: 2.02 h
Activity [11]: 8.6%
Ki [12]: 431 nM
Ki (D(3) dopamine receptor): 1.66 nM
selectivity ratio [13]: 129
Ki (D(2) dopamine receptor [14]): 2.9 nM
AUC(0-t) [15]: 18500 ng·h/mL
Ki [16]: > 1000 nM
Activity (Mus musculus): Non-Toxic

Reference: ChEMBL document CHEMBL4270672, “Synthesis and Biological Evaluation of Fused Tricyclic Heterocycle Piperazine (Piperidine) Derivatives As Potential Multireceptor Atypical Antipsychotics” (J Med Chem, 2018)
